Test results: the Kinase Knowledgebase extract (Sharma et al. 2016)
pIC50: −log10 of the molar value.

Target: CDK2 (human) (UniProt P24941)
Assay: Enzyme Assay

| Structure (SMILES) | pIC50 |
| --- | --- |
| CCc1c(N[C@H]2CC[C@H](N)CC2)nc2ccnn2c1Nc1ccccc1 | > 4.00 |
| CCCCOc1ccc(Nc2c(CCCO)c(N[C@H]3CC[C@H](N)CC3)nc3ccnn23)cc1 | > 4.00 |
| COc1ccc(Nc2c(CCCO)c(N[C@H]3CC[C@H](N)CC3)nc3ccnn23)cc1OC | > 4.00 |
| Cc1c(N[C@H]2CC[C@H](N)CC2)nc2ccnn2c1Nc1ccc(-c2ccc(C(F)(F)F)cc2)cc1 | > 4.00 |
| Cc1c(N[C@H]2CC[C@H](N)CC2)nc2ccnn2c1Nc1ccc(OCc2ccc(Cl)cc2)cc1 | > 4.00 |
| Cc1c(N[C@H]2CC[C@H](N)CC2)nc2ccnn2c1Nc1cccc(OCc2cccc(Cl)c2)c1 | > 4.00 |
| CCOc1ccc(Nc2c(OC)c(NC3CCCNC3)nc3ccnn23)cc1 (configuration not stated) | > 4.00 |
| Cc1c(N[C@H]2CC[C@H](N)CC2)nc2ccnn2c1Nc1ccc(-c2cccnc2)cc1 | > 4.00 |
| COc1cccc(-c2ccc(Nc3c(C)c(N[C@H]4CC[C@H](N)CC4)nc4ccnn34)cc2)c1 | > 4.00 |
| Cc1c(N[C@H]2CC[C@H](N)CC2)nc2c(C#N)cnn2c1Nc1ccc(F)c(Cl)c1 | > 4.00 |
| COc1cccc(COc2cccc(Nc3c(C)c(N[C@H]4CC[C@H](N)CC4)nc4ccnn34)c2)c1 | > 4.00 |
| CCc1c(N[C@H]2CC[C@H](N)CC2)nc2ccnn2c1Nc1ccc(F)c(Cl)c1 | > 4.00 |
| CCc1c(N[C@H]2CC[C@H](N)CC2)nc2ccnn2c1Nc1ccc(N2CCCC2=O)cc1 | > 4.00 |
| Cc1c(N[C@H]2CC[C@H](N)CC2)nc2ccnn2c1Nc1ccc(-c2ccc(F)cc2)cc1 | > 4.00 |
| Cc1c(N[C@H]2CC[C@H](N)CC2)nc2ccnn2c1Nc1ccc(OCc2ccccc2)cc1 | > 4.00 |
| CCc1c(N[C@H]2CC[C@H](N)CC2)nc2ccnn2c1Nc1ccc(OC(F)(F)C(F)F)cc1 | > 4.00 |
| CCc1c(N[C@H]2CC[C@H](N)CC2)nc2ccnn2c1Nc1ccc(OC)c(C(F)(F)F)c1 | > 4.00 |
| Cc1c(N[C@H]2CC[C@H](N)CC2)nc2ccnn2c1Nc1ccc(-c2ccccc2C(F)(F)F)cc1 | > 4.00 |
| Cc1c(N[C@H]2CC[C@H](N)CC2)nc2ccnn2c1Nc1ccc(OCc2cccnc2)cc1 | > 4.00 |

| Structure (SMILES) | pIC50 |
| --- | --- |
| Cc1c(N[C@H]2CC[C@H](N)CC2)nc2ccnn2c1Nc1ccc(-c2ccc(C#N)cc2)cc1 | > 4.00 |
| CCOc1ccc(Nc2c(C(C)C)c(N[C@H]3CC[C@H](N)CC3)nc3ccnn23)cc1 | > 4.00 |
| CCOc1ccc(Nc2c(C)c(N[C@@H]3CCN(Cc4ccccc4)C3)nc3ccnn23)cc1 | > 4.00 |
| Cc1c(N[C@H]2CC[C@H](N)CC2)nc2ccnn2c1Nc1ccc(I)cc1 | > 4.00 |
| CCOc1ccc(Nc2c(C)c(N[C@H]3CC[C@H](N)CC3)nc3c(N)cnn23)cc1 | > 4.00 |
| COc1ccc(-c2ccc(Nc3c(C)c(N[C@H]4CC[C@H](N)CC4)nc4ccnn34)cc2)cc1 | > 4.00 |
| Cc1c(N[C@H]2CC[C@H](N)CC2)nc2ccnn2c1Nc1ccc(-c2ccncc2)cc1 | > 4.00 |
| CCOc1ccc(Nc2c(C)c(N[C@H]3CC[C@H](N)CC3)nc3c(C(=O)Nc4ncc[nH]4)cnn23)cc1 | > 4.00 |
| Cc1c(N[C@H]2CC[C@H](N)CC2)nc2ccnn2c1Nc1ccc(O)cc1 | > 4.00 |
| Cc1c(N[C@H]2CC[C@H](N)CC2)nc2ccnn2c1Nc1ccc(OCC2CCCO2)cc1 (some centres not stated) | > 4.00 |
| Cc1cscc1-c1ccc(Nc2c(C)c(N[C@H]3CC[C@H](N)CC3)nc3ccnn23)cc1 | > 4.00 |
| Cc1c(N[C@H]2CC[C@H](N)CC2)nc2ccnn2c1Nc1ccc(-c2ccc(Cl)cc2)cc1 | > 4.00 |
| C=CCNc1c(CC)c(N[C@H]2CC[C@H](N)CC2)nc2ccnn12 | > 4.00 |
| COc1ccc(Nc2c(CCCO)c(N[C@H]3CC[C@H](N)CC3)nc3ccnn23)cc1 | > 4.00 |
| CCc1c(N[C@H]2CC[C@H](N)CC2)nc2ccnn2c1Nc1ccc(I)cc1 | > 4.00 |
| CCOc1ccc(Nc2c(CC)c(N[C@H]3CC[C@H](N)CC3)nc3ccnn23)cc1 | > 4.00 |
| CCOc1ccc(Nc2c(C)c(N[C@H]3CC[C@H](N)CC3)nc3c(C(=O)Nc4ccncc4)cnn23)cc1 | > 4.00 |
| Cc1c(N[C@H]2CC[C@H](N)CC2)nc2ccnn2c1Nc1ccc(OC(C)C)cc1 | > 4.00 |
